{"source": "patent US5418224A", "about": "“4,13-dioxabicyclo[8.2.1]tridecenone compounds and pharmaceutical compositions containing them” (Kali-Chemie Pharma GmbH, priority 1992, dated 1995)", "key": {"beagle dogs [1]": {"tested_on": "beagle dogs", "assay": "In vivo determination of the effect on the resting tone of the esophagus sphincter (pull-through manometry)", "conditions": "conscious fasting beagle dogs, 0.251 μmole/kg intraduodenally", "experimental": "3. In vivo determination of the effect of the substances on the resting tone of the esophagus sphincter.\nThis determination is carried out on trained, conscious, fasting beagle dogs which, before the test, have each been given an esophagus fistula and a duodenal cannula. The pressure of the lower esophagus sphincter is measured by means of a perfused catheter system which has a lateral opening and which is connected to a pressure transducer and a recorder. The catheter is passed through the esophagus fistula into the stomach and then slowly withdrawn manually (=pull-through manometry). A peak is recorded when the catheter part with the lateral opening passes through the high-pressure zone of the lower esophagus sphincter. The pressure in mm Hg is determined from this peak.\nIn this way, initially the basal pressure of the esophagus sphincter is determined as control value. Subsequently, the test substance is administered intraduodenally and, after 15 minutes, the pressure at the lower esophagus sphincter is measured at 2-minute intervals for a period of 46 minutes. The increase in the pressure after administration of test substance compared with the previously determined basal pressure is calculated."}, "beagle dogs [2]": {"tested_on": "beagle dogs", "assay": "In vivo determination of the effect on the rate of gastric emptying", "experimental": "2. In vivo determination of the effect of the substances on the rate of gastric emptying.\nThe determination of the rate of gastric emptying was carried out on beagle dogs which, before the test, had undergone surgical establishment of an esophagus fistula and implantation of a duodenal cannula. 15 minutes after duodenal administration of the test substances, the fasting conscious dogs were given 285 g of a semisolid caloric test meal through the esophagus fistula. The contents emptied from the stomach were collected through the duodenal cannula at 15-minute intervals. From the collected amounts of stomach contents, the time within which 50% emptying of the stomach takes place was calculated. The time is reported as measure of gastric emptying."}, "motilin receptors": {"molecular_target": "T1, motilin receptors (Oryctolagus cuniculus, UniProt G1T803)", "T1 construct": "fraction of a tissue homogenate from rabbit antrum; from tissue; host or cells: rabbit antrum, mucosa removed, crude membrane preparation", "T1 sequence (G1T803 1-400)": "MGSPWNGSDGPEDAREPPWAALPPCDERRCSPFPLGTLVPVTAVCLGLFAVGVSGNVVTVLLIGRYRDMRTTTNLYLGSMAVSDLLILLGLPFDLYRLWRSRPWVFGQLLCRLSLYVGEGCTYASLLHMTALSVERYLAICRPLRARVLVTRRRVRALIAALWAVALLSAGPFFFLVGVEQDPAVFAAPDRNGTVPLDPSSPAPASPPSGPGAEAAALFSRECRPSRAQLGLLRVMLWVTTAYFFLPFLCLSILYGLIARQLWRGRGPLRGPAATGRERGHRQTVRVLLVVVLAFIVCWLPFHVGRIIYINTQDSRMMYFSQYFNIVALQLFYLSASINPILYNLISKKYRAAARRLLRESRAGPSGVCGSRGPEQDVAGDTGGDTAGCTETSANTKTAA", "assay": "Binding capacity to motilin receptors: displacement of 125-iodine-labelled motilin, rabbit antrum crude membrane preparation", "conditions": "rabbit antrum crude membrane fraction, iodinated motilin 50 pM, 30° C., 60 minutes; read-out: pIC50 value (50% inhibition of the specific binding of the iodinated motilin to the motilin receptors) (converted)", "experimental": "1. Determination of the binding capacity of the test substances to motilin receptors.\nThe affinity of the compounds of the formula I for motilin receptors is measured in vitro on a fraction of a tissue homogenate from rabbit antrum. The displacement of radioactively labelled iodinated motilin from motilin receptor binding by the test substances is determined.\nThe receptor binding studies were carried out by a modification of the method of Borman et al. (Regulatory Peptides 15 (1986), 143-153). To prepare the ^125 iodine-labelled motilin, motilin is iodinated enzymatically using lactoperoxidase in a known manner, for example analogously to the method described by Bloom et al. (Scand. J. Gastroenterol. 11 (1976) 47-52). […]\nFor the binding test, 200 μl of the crude membrane fraction (0.5-1 mg of protein) in 400 μl of a buffer solution A (50 mM tris-HCl buffer, 1.5% BSA, 10 mM MgCl2, pH 8.0) were incubated with 100 μl of iodinated motilin diluted in buffer solution B (10 mM tris-HCl buffer, 1% BSA, pH 8) (final concentration 50 pM) at 30° C. for 60 minutes. […] The residue obtained as pellet after the centrifugation was washed with buffer solution B and counted in a gamma counter. […] From this the corresponding pIC50 value was calculated."}}, "data": [{"smiles": "CC[C@@H](O)[C@@](C)(O)[C@@H]1OC(=O)[C@H](C)[C@@H](O[C@H]2C[C@@](C)(OC)[C@@H](O)[C@H](C)O2)[C@H](C)[C@@H](O[C@@H]2O[C@H](C)C[C@H](N(C)C(C)C)[C@H]2O)[C@@]2(C)CC(C)=C(O2)[C@@H]1C", "note": "[Example 1, [2R,3R(2R',3R'),6R,7S,8S,9R,10R]-3-(2',3'-dihydroxypent-2'-yl)-7-[(2,6-dideoxy-3-C-methyl-3-0-methyl-α-L-ribo-hexopyranosyl)-oxy]-9-[(3,4,6-trideoxy-3-(N-methyl-N-isopropylamino)-β-D-xylo-hexopyranosyl)-oxy]-2,6,8,10,12-pentamethyl-4,13-dioxabicyclo[8.2.1]tridec-12-en-5-one]", "values": [{"measurement": "change of basal tone of the esophagus sphincter", "setting": "beagle dogs [1]; compared with basal pressure", "value": "more than doubled"}, {"measurement": "persistence of the effect on esophagus sphincter tone", "setting": "beagle dogs [1]; throughout duration of the test", "value": "≥ 45", "unit": "min"}, {"measurement": "effect on gastric emptying (in words)", "setting": "beagle dogs [2]; beagle dogs, dose of 0.46 μmole/kg, duodenal administration", "value": "distinct stimulation of gastric emptying"}, {"measurement": "time for 50% emptying of the stomach", "setting": "beagle dogs [2]; fasting conscious beagle dogs, 0.46 μmole/kg duodenal, 15 minutes before semisolid caloric test meal, control animal group 46 minutes", "value": 27, "unit": "min"}, {"measurement": "IC50", "setting": "motilin receptors", "value": 4.79, "unit": "nM"}]}]}
